{
  "source": "paper PMC7824363",
  "about": "“The Cytotoxicity of RNase-Derived Peptides” (Biomolecules, 2020)",
  "key": {"BT-20 cells [1]": {"tested_on": "BT-20 cells", "test": "MTT assay, BT-20 cell viability", "type": "cell-based, human", "details": "48 h", "protocol": "(§1) The human alveolar adenocarcinoma cell line (A549), two breast cancer cell lines (MCF-7 and BT-20), and cervical cancer cell line (HeLa) were obtained from American Type Culture […] (Rockville, MD, USA). Cells were grown at 37 °C in humidified 5% CO2 atmosphere using RPMI 1640 medium for A549 cells and Dulbecco’s modified Eagle’s medium for MCF-7, BT-20, and HeLa cells supplemented with 10% fetal bovine serum (HyClone), 2 mM glutamine, and antibiotics (penicillin and streptomycin, 100 U/mL each).\n(§2) The viability of untreated control cells and cells treated with binase and binase-derived peptides at different concentrations (5, 50, and 125 μM) was determined according to the mitochondrial nicotinamide adenine dinucleotide phosphate NAD(P)H-dependent cellular oxidoreductases activity tested by the standard procedure based on the reduction of the tetrazolium dye MTT) to its insoluble product formazan, which has a purple color. Cells at the initial concentration of […] per well were grown in a 96-well plate (CELLTREAT Scientific Products, Shirley, MA, USA); then, the culture fluid was discarded and fresh medium with peptides was added. After 48 h, formazan absorption was measured at 570 nm (xMark, Bio-Rad, Hercules, CA, USA). The amount of formazan produced is proportional to the number of viable cells. The viability of untreated cells was taken as 100%."}, "HeLa cells": {"tested_on": "HeLa cells", "test": "MTT assay, HeLa cell viability", "type": "cell-based, human", "details": "48 h, versus untreated cells = 100%, triplicate", "protocol": "as §1, §2"}, "BT-20 cells [2]": {"tested_on": "BT-20 cells", "test": "Immunofluorescence confocal microscopy, entry into BT-20 cells", "type": "cell-based, human", "details": "50 µM, 30 min incubation, His-tagged peptides (anti-His Alexa Fluor 647) or tagless binase (anti-binase, FITC), confocal laser scanning microscopy", "protocol": "(§3) A549 cells (25,000 cells/well) and BT-20 cells (150,000 cells/well) were seeded on 4-well chamber slides and incubated for 24 h in 800 µL of 10% fetal bovine serum containing RPMI or DMEM, respectively. The medium was replaced with the fresh one, and the His-tagged B21–50 and B74–94 peptides or tagless binase were applied to each well at the final concentration of 50 µM. After 30 min of incubation, the medium was removed, and the cells were washed three times with ice-cold phosphate-buffered saline (PBS). Then, cells were fixed in a 4% paraformaldehyde solution for 15 min and permeabilized in 0.1% Triton-X100 solution in PBS for 10 min. Binase-treated cells were incubated overnight with anti-binase antibodies (1:500) at 4 °C [39]. Thereafter, the cells were washed three times in PBS containing 0.1% Tween for 10 min each and then were incubated with fluorescein isothiocyanate (FITC)-conjugated mouse anti-rabbit immunoglobulin G (IgG) (H+L) cross-adsorbed secondary antibody (Thermo Fisher Scientific, Inc., Waltham, MA, USA Cat.# 31584) at the concentration of 2 µg/mL in PBS containing 1% bovine serum albumin at room temperature for 45 min in the dark. Non-specific binding of the secondary antibodies was evaluated at the same experiment but without treatment with primary antibodies. […]"}, "A549 cells": {"tested_on": "A549 cells", "test": "Immunofluorescence confocal microscopy, entry into A549 cells", "type": "cell-based, human", "details": "50 µM, 30 min incubation, His-tagged peptides (anti-His Alexa Fluor 647) or tagless binase (anti-binase, FITC), confocal laser scanning microscopy", "protocol": "as §3"}, "MCF-7 cells": {"tested_on": "MCF-7 cells", "test": "MTT assay, MCF-7 cell viability", "type": "cell-based, human", "details": "125 µM, 48 h", "protocol": "as §1, §2"}, "BT-20 cells [3]": {"tested_on": "BT-20 cells", "test": "MTT assay with cetuximab pre-treatment (EGFR inhibition)", "type": "cell-based, human", "details": "10 μg/mL cetuximab for 48 h, then 50 μM peptide for 48 h", "protocol": "To examine the peptide effect on EGFR signaling, the EGFR-specific monoclonal antibody cetuximab (Merck, KGaA, Darmstadt, Germany) was added at the concentration of 10 μg/mL to cells grown for 24 h in 96-well plates. After 48 h of exposure to inhibitor, half the wells were treated with the B74–94 peptide at 50 μM concentration, and the cells were allowed to grow for another 48 h. Afterwards, cell proliferation was assessed by the MTT assay."}, "[4]": {"molecular_target": "epidermal growth factor receptor (human (endogenous in BT-20)) (UniProt P00533)"}, "[5]": {"details": "concentration not specified (5-125 µM tested)"}},
  "data": [
    {"substance": "B1–20: chemically synthesized peptide corresponding to binase region 1–20 (AVINTFDGVADYLIRYKRLP; UniProt P00649 54-73, looked up, fragment)", "values": [
      {"measurement": "decrease of cell viability", "setting": "BT-20 cells [1]; [5]", "result": "15–25%"}
    ]},
    {"substance": "B21–50: chemically synthesized peptide corresponding to binase region 21–50 (DNYITKSQASALGWVASKGNLAEVAPGKSI; UniProt P00649 74-103, looked up, fragment)", "values": [
      {"measurement": "decrease of cell viability", "setting": "HeLa cells; 50 µM", "result": 45, "unit": "%"},
      {"measurement": "decrease of cell viability", "setting": "HeLa cells; 125 µM (highest concentration)", "result": 93, "unit": "%"},
      {"measurement": "decrease of cell viability", "setting": "BT-20 cells [1]; 5 µM, versus non-treated cells, triplicate", "result": 28, "unit": "%"},
      {"measurement": "decrease of cell viability", "setting": "BT-20 cells [1]; 50 µM, versus non-treated cells, triplicate", "result": 23, "unit": "%"},
      {"measurement": "decrease of cell viability", "setting": "BT-20 cells [1]; 125 µM, versus non-treated cells, triplicate", "result": 68, "unit": "%"},
      {"measurement": "detection inside BT-20 cells", "setting": "BT-20 cells [2]", "result": "detected inside BT-20 cells"},
      {"measurement": "detection inside A549 cells", "setting": "A549 cells", "result": "not been visualized"}
    ]},
    {"substance": "B74–94: chemically synthesized peptide corresponding to binase region 74–94 (DINYVSGFRNADRLVYSSDWL; UniProt P00649 127-147, looked up, fragment)", "values": [
      {"measurement": "inhibition of cell proliferation (fold)", "setting": "MCF-7 cells", "result": "two-fold"},
      {"measurement": "decrease of cytotoxicity after preliminary cell treatment with cetuximab", "setting": "BT-20 cells [3]", "result": 28, "unit": "%"},
      {"measurement": "detection inside BT-20 cells", "setting": "BT-20 cells [2]", "result": "detected inside BT-20 cells"},
      {"measurement": "detection inside A549 cells", "setting": "A549 cells", "result": "not been visualized"}
    ]},
    {"substance": "B95–109: chemically synthesized peptide corresponding to binase region 95–109 (IYKTTDHYATFTRIR; UniProt P00649 148-162, looked up, fragment)", "values": [
      {"measurement": "decrease of cell viability", "setting": "BT-20 cells [1]; [5]", "result": "15–25%"}
    ]},
    {"substance": "binase-derived peptide B74–94", "values": [
      {"measurement": "cytotoxicity of B74–94 (50 μM, 48 h) toward BT-20 cells by MTT assay after 48 h of pre-treatment with 10 μg/mL cetuximab (EGFR-specific antibody)", "setting": "[4]", "result": 28, "unit": "%"}
    ]}
  ]
}
